Ends that are not written are not given here.
How the values were obtained:
normal mice = conditions: once daily 11 days (Irwin 2004); cited from earlier work
Swiss TO mice = experiment: Daily (Pro3)GIP for 90 days in normal (TO) mice fed high fat, cafeteria, high carbohydrate or normal diets; assay type: in vivo, mouse; conditions: for Glycated Hemoglobin (%): 25 nmol/kg bw/day
Description: Young obese diabetic (ob/ob) mice derived from the colony maintained at Aston University, UK (Bailey, C. J. et al., 1982, Int. J. Obes. 6:11-21) were used at 5-7 weeks of age. Normal lean control mice from the same colony were used in comparative experiments (See Example 6, below). Animals were age-matched, divided into groups and housed individually in an air-conditioned room at 22±2° C. with a 12 hours light:12 hours dark cycle (08:00-20:00 hours). Drinking water and a standard rodent maintenance diet (Trouw Nutrition, Cheshire, UK) were freely available. In a separate experiment, Swiss Tylers Original (TO) mice purchased from Harlan Ltd. (Bicester, UK) were used at 5-7 weeks of age. Animals were housed as for ob/ob mice and given drinking water ad libitum. Normal TO mice were allowed free access to fed high fat diet (45% fat, 20% protein, 35% carbohydrate, 26.15 MJ/kg), high carbohydrate diet (10% fat, 20% protein, 70% carbohydrate, 18.80 MJ/kg) (Special Diets Service, Witham, Essex, UK), cafeteria diet (corresponding to approximately 33% fat, 19% protein, 48% carbohydrate, 16.39 MJ/kg) or normal rodent maintenance diet (10% fat, 30% protein, 60% carbohydrate; 14.2 MJ/kg, Trouw Nutrition, Cheshire, UK). The cafeteria diet comprised 6 daily rotations of 2 palatable food items per day (2 from: tuna, peanut butter, crisps, chocolate biscuits, madera cake, chocolate, luncheon meat, sausages, corned beef, cheese, marzipan). All animal experiments were carried out in accordance with the UK Animals (Scientific Procedures) Act 1986.
Food intake and body weight were recorded daily while plasma glucose and insulin concentrations were monitored at intervals of 3-6 days. Whole blood for the measurement of glycated hemoglobin was taken on day 60. In addition, plasma samples for measurement of cholesterol, circulating triglycerides, HDL-cholesterol (HDL-C) and LDL-cholesterol (LDL-C) were taken on day 60. […] Mice fasted for 18 hours were used to examine the metabolic response to 15 minutes feeding on day 60. In a separate series, pancreatic tissues were excised at the end of the 60-day treatment period and processed for immunohistochemistry or measurement of insulin following extraction with 5 ml/g of ice-cold acid ethanol (750 ml ethanol, 235 ml water, 15 ml concentrated HCl). Blood samples taken from the cut tip of the tail vein of conscious mice at the times indicated in the Figures were immediately centrifuged using a Beckman microcentrifuge (Beckman instruments, UK) for 30 seconds at 13,000×g. The resulting plasma was then aliquoted into fresh Eppendorf tubes and stored at −20° C. prior to glucose and insulin determinations. Normal control mice from the same genetic background were used for comparative purposes. […] Body weights were recorded daily and blood for determination of glycated hemoglobin was collected at end of study period.
Plasma glucose was assayed by an automated glucose oxidase procedure (Stevens, J. F., 1971, Clin. Chem. Acta 32:199-201) using a Beckman Glucose Analyzer II (Beckman Instruments, Galway, Ireland). Plasma and pancreatic insulin were assayed by a modified dextran-coated charcoal radioimmunoassay (Flatt, P. R., Bailey, C. J., 1981, Diabetologia 20:573-577). Plasma triglyceride and cholesterol levels were measured using a Hitachi Automatic Analyser 912 (Boehringer Mannheim, Germany). Glycated hemoglobin was determined using a commercially available kit purchased from Chirus Ltd. (Watford, UK).
Normal mice were fed the different diets indicated above ad libitum from 4-5 weeks of age. Treated groups of mice received intraperitoneal injection of ProGIP (25 nmoles/kg body weight) each day.

DPP-IV = DPP-IV (Homo sapiens, UniProt P27487); experiment: Degradation of GIP and Glu3-substituted GIP analogs by DPP-IV (HPLC); assay type: in vitro ADME
Sequence of DPP-IV (P27487 whole entry, species assumed): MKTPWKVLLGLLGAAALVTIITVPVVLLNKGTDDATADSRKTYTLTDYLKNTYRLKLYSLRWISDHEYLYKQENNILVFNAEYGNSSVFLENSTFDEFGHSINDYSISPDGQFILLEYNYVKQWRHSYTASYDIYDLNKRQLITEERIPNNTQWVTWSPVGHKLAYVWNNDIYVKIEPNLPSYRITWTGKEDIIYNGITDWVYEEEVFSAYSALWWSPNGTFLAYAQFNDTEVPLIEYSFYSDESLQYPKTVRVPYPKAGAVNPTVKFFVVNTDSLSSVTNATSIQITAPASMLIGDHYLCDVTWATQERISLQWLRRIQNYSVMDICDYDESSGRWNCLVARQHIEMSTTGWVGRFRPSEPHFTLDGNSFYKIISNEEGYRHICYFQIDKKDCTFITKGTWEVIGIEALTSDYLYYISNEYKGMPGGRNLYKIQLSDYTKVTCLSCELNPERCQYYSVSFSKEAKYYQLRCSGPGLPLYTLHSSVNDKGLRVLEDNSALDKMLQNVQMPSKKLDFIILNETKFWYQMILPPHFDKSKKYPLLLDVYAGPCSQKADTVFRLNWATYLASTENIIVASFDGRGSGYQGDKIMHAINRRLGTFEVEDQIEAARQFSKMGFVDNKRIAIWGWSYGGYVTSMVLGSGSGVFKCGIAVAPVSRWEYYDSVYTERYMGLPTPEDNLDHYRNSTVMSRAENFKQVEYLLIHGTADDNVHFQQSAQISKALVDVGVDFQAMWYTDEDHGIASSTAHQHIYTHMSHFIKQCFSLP

ob/ob mice = experiment: Acute antihyperglycaemic and insulin releasing activity with glucose and native GIP in ob/ob mice; assay type: in vivo, mouse; conditions: 25 nmol/kg i.p. with GIP and glucose 18 mmol/kg, vs native GIP
Description: Animals. Obese diabetic (ob/ob) mice derived from the colony maintained at Aston University, UK (Bailey C. J. et al., 1982, Int. J. Obes. 6:11-21) were used at 14-18 weeks of age. Animals were age-matched, divided into groups and housed individually in an air-conditioned room at 22±2° C. with a 12 hour light: 12 hour dark cycle (08:00-20:00 hr). Drinking water and a standard rodent maintenance diet (Trouw Nutrition, Cheshire, UK) were freely available. All animal experiments were carried out in accordance with the UK Animals (Scientific Procedures) Act 1986.
Biochemical analysis. Plasma glucose was assayed by an automated glucose oxidase procedure ([…]) using a Beckman Glucose Analyzer II (Beckman Instruments, Galway, Ireland). Plasma insulin was assayed by radioimmunoassay.
Methods. […] All test solutions were administered in a final volume of 5 ml/kg body weight. Blood samples were collected from the cut tip of the tail vein of conscious mice into chilled fluoride/heparin coated glucose microcentrifuge tubes (Sarstedt, Numbrecht, Germany) immediately prior to injection and at 15, 30 and 60 minutes post injection. Blood samples were immediately centrifuged using a Beckmnan microcentrifuge (Beckman Instruments, High Wycombe, Buckinghamshire, UK) for 30 seconds at 13,000×g. Plasma glucose was assayed using a Beckman Glucose Analyzer n (Beckman Instruments, High Wycombe, Buckinghamshire, UK) (Stevens, J. F., 1971, Clin. Chim. Acta 32:199-201) and plasma insulin was determined by RIA (Flatt, P. R. and Bailey, C. J., 1981, Diabetologia 5:573-577). All animal studies were carried out in accordance with the UK Animals (Scientific Procedures) Act 1986.

[1] = normal mice fed high fat or cafeteria diets, 90 days

YAPGTFISDYSIAMDKIHQQDFVNWLLAQKGKKNDWKHNITQ [(Pro^3)GIP]
glucose tolerance and insulin sensitivity (normal mice): reversible impairment of glucose tolerance associated with decreased insulin sensitivity | Glycated Hemoglobin (%) (Swiss TO mice; Cafeteria diet, 90 days): 4.0 ± 0.32 % | Glycated Hemoglobin (%) (Swiss TO mice; High Carbohydrate diet, 90 days): 4.3 ± 0.12% | Glycated Hemoglobin (%) (Swiss TO mice; High Fat diet, 90 days): 4.0 ± 0.21 % | Glycated Hemoglobin (%) (Swiss TO mice; Normal diet, 90 days): 3.9 ± 0.14% | body weight and glycated hemoglobin (parameters measured) (Swiss TO mice; high carbohydrate or normal diets): did not affect | body weight gain induced by excessive energy intake (Swiss TO mice; high fat diet, lesser extent cafeteria diet): counters body weight gain | decrease in body weight (Swiss TO mice; [1]): up to 20% | decrease in glycated hemoglobin (Swiss TO mice; [1]): greater than 1% | half-life at 2 μm (DPP-IV; DPP-IV enzyme (5 mU) in buffer, pH 7.8, incubation with DPP-IV, unit not given (time points in hrs), read-out: Estimated Half-Life (converted)): > 8 h | Intact Peptide Remaining (%) 0 hrs. (DPP-IV; incubation with DPP-IV (5 mU), 37°C, pH 7.8, 0 hrs): 100% | remaining at 2 h, 2 μm (DPP-IV; isolated DPP-IV enzyme (5 mU), incubation with DPP-IV (5 mU), 37°C, pH 7.8, 2 hrs, read-out: Intact Peptide Remaining (%) 2 hrs.): 100% | remaining at 4 h, 2 μm (DPP-IV; isolated DPP-IV enzyme (5 mU), incubation with DPP-IV (5 mU), 37°C, pH 7.8, 4 hrs, read-out: Intact Peptide Remaining (%) 4 hrs.): 100% | remaining at 8 h, 2 μm (DPP-IV; isolated DPP-IV enzyme (5 mU), incubation with DPP-IV (5 mU), 37°C, pH 7.8, 8 hrs, read-out: Intact Peptide Remaining (%) 8 hrs.): 100% | resistance to DPP-IV degradation (DPP-IV; words, up to 8 hours incubation): completely resistant | plasma glucose and insulin profiles when administered together with native GIP (ob/ob mice): significantly inhibited the action of GIP
